Experiments:
Format in all cases: in vivo, C57BL/6 mice
[1] = test system: mice with carotid artery thrombus; test: Neurological scoring, 15-score standard, mice; conditions: 24 hours after administration; normal = 15, dead = 0; tPA 10 mg/kg alone; T541 20 mg/kg, T141 12 mg/kg, T582 15 mg/kg each + tPA 10 mg/kg
Experimental: Neurological scoring was conducted to each group of mice after reperfused for 24 hours based upon scoring standards (15 scores) (Garcia J H et al. Stroke. 1995; 26:627-634.) with slight modification:
Mice capacity of autonomic activity: mice were put into a 25×15 cm cage to record their motion trails within 3 minutes; mice incapable of moving basically were denoted as 0; mice with little activity and not touching any wall of the cage were denoted as 1; mice touching any […] were denoted as 2; mice touching three walls and above were denoted as 3;
Mice limbs symmetry experiment: mice tails were lifted to observe the motion trails of their bodies; mice with completely asymmetric bodies were denoted as 0; mice with almost asymmetrical bodies were denoted as 1; mice with moderately asymmetrical bodies were denoted as 2; mice with almost symmetric bodies were denoted as 3;
Measurement of open field test: free motion of mice was observed; mice without any motion were denoted as 0; mice circling around were denoted as 1; mice tilting to one side to make curvilinear motion were denoted as 2; mice making rectilinear motion were denoted as 3; […]
Mice neurological scoring: a sum of the individual score of the above five experiments is calculated; 15 scores denote normal mice and 0 denote dead mice.

mitochondrial complex II = test: Mitochondrial complex II activity in brain tissue; conditions: brain tissue 24 hours after administration; tPA 10 mg/kg alone or + T541 20 mg/kg or ingredients at Table 7 doses
Source text: (§1) To compare the therapeutical effect on reperfusion injury caused by tPA thrombolysis between the traditional Chinese medicinal composition of the present invention and each ingredient (total saponins of Astragalus, the experiment was divided into the following group (tPA is combined with T541, individual ingredient thereof and compatibility of any two ingredients) specifically as follows: tPA+total saponins of Astragalus (tPA+HQ), tPA+ salvianolic acids (tPA+DS), tPA+Panax notoginseng saponins (tPA+SQ), tPA+ total saponins of Astragalus+salvianolic acids (tPA+HQ+DS), tPA+ total saponins of Astragalus+Panax notoginseng saponins (tPA+HQ+SQ), tPA+ salvianolic acids+Panax notoginseng saponins (tPA+DS+SQ) and tPA+T541. Normal saline served as an isovolumetric control. The usage number in each group is 6.
ELISA adsorption kit was used to measure the change on the content of MDA, 8-hydroxyl-2′-deoxyguanosine (8-OHdG), adenosine triphosphate (ATP), adenosine diphosphate (ADP) and adenosine monophosphate (AMP) in the penumbra field of brain tissue cortex of the mode, and the change on the activity of mitochondrial complexes I, II, IV and V. 6 samples were used to repeat the independent experiment for at least three times for each group of data.

[2] = test system: brain surface postcapillary venule; test: Plasma albumin leakage of brain surface postcapillary venule; conditions: 24 h after administration; tPA 10 mg/kg alone; T541 20 mg/kg + tPA 10 mg/kg
Experimental: Plasma albumin leakage: femoral venous cannula of mice was conducted under a stereoscopic microscope (PE/08, outer diameter: 0.36 mm and inner diameter: 0.20 mm). Mice were fixed on an observation board for brain microcirculation in prone position; parietal skin of mice was cut off to expose right parietal bone; the whole parietal bone was thinned by grinding by a hand-held cranial drill till there is only one layer of soft bone cortex under the stereoscopic microscope. FITC-labelled plasma albumin (excitation wavelength: 420-490 nm, emission wavelength: 520 nm) was slowly injected via femoral vein. 10 minutes later, fluorescence images of postcapillary venule, artery in the dominant region of middle cerebral artery and artery in the dominant region of anterior cerebral artery among […] (diameter) on the surface of the mice brain after reperfused for 24 hours by an upright fluorescent microscope linked to hypersensitive fluorescent CCD; then leakage of plasma albumin was analyzed. Fluorescence intensity inside (Iv) and outside (Ii) venule was calculated by an image analysis software ImageJ (Bethesda, Md., USA); the leakage of plasma albumin is denoted by Ii/Iv.

Bcl-2 = test: Western blotting of Bcl-2 in brain tissue; conditions: brain tissue 24 h after administration, sham = 1.00; tPA 10 mg/kg alone or + T541 20 mg/kg or ingredients at Table 7 doses
Source text: as §1
After reperfused for 24 hours, mice were perfused by normal saline; Western blotting analysis was conducted to the penumbra field of infarcted right cerebral cortex. […] Excessive supernatant was taken out and quantified by a BCA protein quantification liquor (ThermoScientific, US) to measure absorbance value at 560 nm of ELIASA and to calculate the protein concentration according to a standard curve. […] The density of electrophoretic strips was analyzed by an image analysis software Quantityone. […]

tPA: tissue-type plasminogen activator (tPA) for thrombolysis
Neurological scoring, 15-score standard [1]: 5.82 ± 0.52 | Complex II activity (mitochondrial complex II): 0.025 ± 0.005 | Albumin exudation ratio of venule % [2]: 125.10 ± 3.53 % | Bcl-2 (Bcl-2): 1.51 ± 0.14
